# Experimental data: patent US11583529B2, “Treatment of inflammatory disorders” (Aldeyra Therapeutics, Inc., priority 2017, dated 2023)
# Entries after “also recorded” stand apart in the source; their conditions may differ.
# Test system: rat model of diabetic macular edema (DME)
# Assay: Rat model of diabetic macular edema (STZ-induced diabetes), intravitreal treatment
# Format: in vivo, male brown Norway rats
# Protocol: To assess the effect of Compound I-22 in a rat model of diabetic macular edema (DME), Type 1 diabetes was induced in male brown Norway rats by intraperitoneal administration of streptozotocin (STZ; 55 mg/kg). Forty days after STZ administration, animals were assessed for the presence of diabetes by testing blood glucose levels.
# Compound I-22 was supplied as a preformulated sterile solution at 5 mg/mL. The vehicle was 25% hydroxypropyl-β-cyclodextrin solution (333 mOsm/kg) in a sodium phosphate buffer, pH 7.2. Animals with diabetes were assigned to groups of ten, to receive either vehicle (HPβCD) or compound I-22.
# The study consisted of three groups of male brown Norway rats. Diabetes and diabetic retinopathy were induced in Groups 2 and 3 by intraperitoneal injection of streptozotocin (STZ) on Day 0; Group 1 animals served as non-STZ (non-diabetic) untreated controls. Six and eight weeks after STZ injection, Vehicle (3.5 μL) and Compound I-22 (17.5 μg per eye; 3.5 μL) were administered intravitreally to both eyes of rats in Group 2 and Group 3, respectively. Clinical observations (daily), body weights (weekly), qualitative food consumption, and blood glucose levels (weekly) were assessed. To evaluate retinopathy, electroretinography (ERG) was conducted at Weeks 8, 9 and 10; and optical coherence tomography (OCT) and fundus fluorescein angiography (FFA) were performed pre-dose at Week 6, and at Weeks 8, 9, and 10. Animals were euthanized at 10 weeks post-STZ administration and eyes were collected for histopathological evaluation.
# Type 1 diabetes was induced by intraperitoneal administration of 55 mg/kg STZ after an overnight fast. The STZ dosing solution (27.5 mg/mL) was prepared immediately prior to injection by dissolving STZ (Sigma-Aldrich Corp, St. Louis, Mo., Catalog S0130) in a citrate solution (see below) followed by filtration of the STZ solution using a 0.2 μm syringe filter (Pall Life Sciences, Ann Arbor, Mich., Catalog PN4192). The STZ dosing solution was used for injection within approximately 30 minutes after reconstitution.
# Electroretinography (ERG) was performed on Days 55, 62 and 69. After an overnight dark adaption, both eyes were dilated with 1% tropicamide. Animals were anesthetized by isoflurane prior to the procedure. ERG responses to light stimuli (8.0 cd·s/m^2) were recorded by RETevet (LKC Technologies, Inc.). Implicit times and amplitudes of a-waves and b-waves were reported. There was a deviation from the protocol in which ERG was not performed prior to Test Article administration (˜Day 40). The deviation had no impact on the conclusion of the study. Baseline ERG measurements are not required to determine efficacy of the Test Article. A […] ERG assessment was added to the study.
# Optical coherence tomography (OCT) and fundus fluorescein angiography (FFA) were performed on Day 41 (pre-dose) and Days 56, 63 and 70 (post-dose initiation). Both eyes were dilated with 1% tropicamide. Animals were anesthetized (by ketamine/xylazine intramuscular injection) prior to the procedures.
# Retinas of both eyes in each animal were scanned by OCT (Envisu R-Class, Leica/Bioptogen). Thickness of retinal mid-layers, approximately including the outer plexiform layer (OPL), the outer nuclear layer (ONL) and the photoreceptor inner segment (IS), were measured using Bioptigen InVivoVue Reader software. For each eye, four (4) digital calipers were placed randomly on a cross-section image between OPL and IS, away from optic nerve; and measurements were exported to Microsoft Excel files. An average thickness of each retina was calculated from the four (4) measurements, using Microsoft Excel.
# For FFA, ˜1.5 mL/kg fluorescein (AK-FLUOR® fluorescein injection, USP, 10%, NDC 17478253-10) was injected intraperitoneally to visualize the retinal vasculature. […]
# [1] = 17.5 μg per eye IVT at 6 and 8 weeks after STZ, Week 10, vs vehicle
# [2] = 17.5 μg per eye IVT, vs vehicle
smiles,measurement,setting,value
CC(C)(O)c1cc2oc(-c3ccccc3)nc2cc1N [Compound I-22],tolerability in the retina,17.5 μg per eye IVT,well tolerated
same,neutrophil infiltration (histopathology score),[1],significant reduction; also recorded: blocked
same,retinal thickness (histopathology score),[1],reduced retinal thickness; also recorded: statically significant decrease; also recorded: significantly reduced
same,severities of the retinal lesions (histopathology),"17.5 μg per eye IVT at 6 and 8 weeks after STZ, ten weeks after STZ, vs vehicle",significantly diminished; also recorded: statistically significant reductions
same,retinal inflammation,"17.5 μg per eye IVT, model of DME",decreased
same,"ERG, OCT, or FFA",[2],did not show statistically significant effects
same,diabetes-induced retinal vascular changes,[2],inhibited; also recorded: blocked
same,"body weights, glucose levels, ERG, OCT or FFA",Group 3 vs Vehicle-treated Group 2,No statistically significant differences
same,Mean vascular scores,"Week 8, control group 3.0, p<0.05",2.47
same,OCT mean retinal thickness,"Week 9, vehicle-treated group 83.3 μm",82.3 μm
same,Retinal thickness (OCT),"Weeks 9 and 10, vs vehicle","reduced at Weeks 9 and 10, however it was not statistically significant"
same,decrease in retinal vascularity score,"microscopic sections of the retinas, vs vehicle, p<0.05",36%
same,ERG changes,relative to the non-diabetic control group,nor were there any ERG changes
same,decrease in vascular leakage,vs vehicle-treated group,did not reach statistical significance
